From US20020137929A1, “1 - (3-heterocyclylphenyl) isothiourea, -isourea, -guanidine and -amidine herbicidal agents” (Intellectual Property Department, BASF Aktiengesellschaft, priority 1998, published 2002)

Assays:
GLXMA (Soybean) [1] = assay: Postemergence herbicidal evaluation; assay type: in vivo, Glycine max
Experimental: In the tests, seedling plants are grown in jiffy flats for about two weeks. The test compounds are dispersed in 50/50 acetone/water mixtures containing 0.5% TWEEN®20, a polyoxyethylene sorbitan monolaurate surfactant of Atlas Chemical Industries, in sufficient quantities to provide the equivalent of about 0.0156 kg to 0.500 kg per hectare of active compound when applied to the plants through a spray nozzle operating at 40 psi for a predetermined time. After spraying, the plants are placed on greenhouse benches and are cared for in accordance with conventional greenhouse procedures. From four to five weeks after treatment, the seedling plants are examined and rated according to the rating system set forth below. Where more than one test is involved for a given compound, the data are averaged.
Plant species employed in these evaluations are reported by header abbreviation, common name and scientific name.
(§1) Results of herbicide evaluation are expressed on a rating scale (0-9). The scale is based upon a visual observation of plant stand, vigor, malformation, size, chlorosis and overall plant appearance as compared with a control.

GLXMA (Soybean) [2] = assay: Preemergence herbicidal evaluation; assay type: in vivo, Glycine max; settings: rated 4-5 weeks after treatment
Text: as §1
The preemergence herbicidal activity of the test compounds of the present invention is exemplified by the following tests in which the seeds of a variety of monocotyledonous and dicotyledonous plants are separately mixed with potting soil and planted on top of approximately one inch of soil in separate pint cups. After planting, the cups are sprayed with the selected aqueous acetone solution containing test compound in sufficient quantity to provide the equivalent of about 0.0156 to 0.500 kg per hectare of test compound per cup. The treated cups are then placed on greenhouse benches, watered and cared for in accordance with conventional greenhouse procedures. From four to five weeks after treatment, the tests are terminated and each cup is examined and rated according to the rating system provided in Example 37.
The compounds evaluated are reported by compound number given in Example 37.

| SMILES | GLXMA herbicidal rating (GLXMA (Soybean) [1]; rate 0.0157 kg/ha) | GLXMA herbicidal rating (GLXMA (Soybean) [1]; rate 0.0313 kg/ha) | GLXMA herbicidal rating (GLXMA (Soybean) [1]; rate 0.0625 kg/ha) | GLXMA herbicidal rating (GLXMA (Soybean) [1]; rate 0.1250 kg/ha) | GLXMA herbicidal rating (GLXMA (Soybean) [1]; rate 0.2500 kg/ha) | GLXMA herbicidal rating (GLXMA (Soybean) [1]; rate 0.5000 kg/ha) | GLXMA preemergence herbicidal rating (GLXMA (Soybean) [2]; rate 0.1250 kg/ha) | GLXMA preemergence herbicidal rating (GLXMA (Soybean) [2]; rate 0.2500 kg/ha) | GLXMA preemergence herbicidal rating (GLXMA (Soybean) [2]; rate 0.5000 kg/ha) | GLXMA preemergence herbicidal rating (GLXMA (Soybean) [2]; rate 0.0156 kg/ha) | GLXMA preemergence herbicidal rating (GLXMA (Soybean) [2]; rate 0.0313 kg/ha) | GLXMA preemergence herbicidal rating (GLXMA (Soybean) [2]; rate 0.0625 kg/ha) |
| --- | --- | --- | --- | --- | --- | --- | --- | --- | --- | --- | --- | --- |
| CCC1SC(=Nc2cc(N3C(=O)C4=C(CCCC4)C3=O)c(F)cc2Cl)N(C)C1=O (stereo not drawn) [Compound 6, N-{4-chloro-5-[(5-ethyl-3-methyl-4-oxo-2-thiazolidinylidene)amino]-2-fluorophenyl}-1-cyclohexene-1,2-dicarboximide] | 3.0 | 3.0 | 3.0 | 3.5 | 4.0 | 4.0 | 0.0 | 0.0 | 0.0 | – | – | – |
| CCOC(=O)CN1C(=O)C(CC(=O)O)S/C1=N/c1cc(-n2c(=O)cc(C(F)(F)F)n(C)c2=O)c(F)cc1Cl (stereo not drawn) [Compound 16] | – | – | – | – | – | – | 2.0 | 3.5 | 7.0 | 0.0 | 0.0 | 2.0 |
